{"source": "patent US8771646B2", "about": "“Nicotinic acid and picolinic acid derived near-infrared fluorophores” (VisEn Medical, Inc., priority 2005, dated 2014)", "experiment": "Absorption and emission maxima in water", "assay_type": "physicochemical", "data": [{"smiles": "O=C(O)c1ccc(C(=C\\C=C2/Sc3ccccc3N2CCCS(=O)(=O)O)/C=C/c2sc3ccccc3[n+]2CCCS(=O)(=O)O)nc1", "note": "[Example 6]", "values": [{"measurement": "Abs. max (water)", "result": 643, "unit": "nm"}, {"measurement": "Em. Max (water)", "result": 663, "unit": "nm"}]}]}
